Test results as given in ChEMBL document CHEMBL1137009, “Inhibition of sphingosine-1-phosphate lyase for the treatment of autoimmune disorders” (J Med Chem, 2009).
Calls of active or inactive are those of the source. The rule behind the calls is not given here.

How the values were obtained:
Mus musculus [1] = assay: Induction of lymphopenia in 129/SvEvBrd x C57BL/6 hybrid mouse assessed as change in circulating lymphocyte level at 100 mg/kg, po administered as single dose after 18 hrs by complete blood count analysis relative to control; format: functional
[2] = (§1) AUC (0 to infinity) in 129/SvEvBrd x C57BL/6 hybrid mouse at 10 mg/kg, po; format: ADME, organism-based, Plasma; design: time infinity, dose 10 mg/kg, route oral; conditions: 129/SvEvBrd x C57BL/6 hybrid, plasma
[3] = Permeability across human Caco-2 cell membrane at 20 uM; format: ADME, cell-based; conditions: read-out: permeability
[4] = Clearance in 129/SvEvBrd x C57BL/6 hybrid mouse at 1 mg/kg, iv; format: ADME, organism-based; design: dose 1 mg/kg, route intravenous; conditions: in vivo
[5] = Half life in 129/SvEvBrd x C57BL/6 hybrid mouse; format: ADME, organism-based; conditions: in vivo
[6] = (§2) Oral bioavailability in 129/SvEvBrd x C57BL/6 hybrid mouse at 1 mg/kg, iv and 10 mg/kg, po; format: ADME, organism-based; conditions: 129/SvEvBrd x C57BL/6 hybrid, in vivo
Mus musculus [7] = assay: Reduction in sphingosine-1-phosphate lyase activity in mouse spleen at 100 mg/kg, po after 18 hrs by radioreceptor binding assay; format: functional, organism-based; design: dose 100 mg/kg
Mus musculus [8] = assay: Increase in sphingosine-1-phosphate level in mouse spleen at 100 mg/kg, po after 18 hrs by radioreceptor binding assay relative to control; format: functional
[9] = Cmax in 129/SvEvBrd x C57BL/6 hybrid mouse; format: ADME, organism-based; conditions: in vivo
[10] = Tmax in 129/SvEvBrd x C57BL/6 hybrid mouse; format: ADME, organism-based; conditions: in vivo
[11] = Volume of distribution in 129/SvEvBrd x C57BL/6 hybrid mouse; format: ADME, organism-based; conditions: in vivo
Mus musculus [12] = assay: Induction of lymphopenia in 129/SvEvBrd x C57BL/6 hybrid mouse assessed as change in circulating lymphocyte level at 30 mg/kg, po administered as single dose after 18 hrs by complete blood count analysis relative to control; format: functional
Mus musculus [13] = assay: as §1; format: ADME, organism-based, Plasma; design: time infinity, dose 10 mg/kg, route oral; conditions: in vivo
Mus musculus [14] = assay: as §2; format: ADME, organism-based; conditions: in vivo
Mus musculus [15] = assay: Induction of lymphopenia in 129/SvEvBrd x C57BL/6 hybrid mouse assessed as reduction in lymphocyte level from peripheral circulation at 10 mg/kg by complete blood count analysis; format: functional; design: scale not given: the % may be the effect or the level left
[16] = target: T1, Sphingosine-1-phosphate lyase 1 (Mus musculus, UniProt Q8R0X7); assay: Inhibition of sphingosine-1-phosphate lyase in mouse spleen by scintillation counting; format: tissue-based
T1 sequence (Q8R0X7 whole entry): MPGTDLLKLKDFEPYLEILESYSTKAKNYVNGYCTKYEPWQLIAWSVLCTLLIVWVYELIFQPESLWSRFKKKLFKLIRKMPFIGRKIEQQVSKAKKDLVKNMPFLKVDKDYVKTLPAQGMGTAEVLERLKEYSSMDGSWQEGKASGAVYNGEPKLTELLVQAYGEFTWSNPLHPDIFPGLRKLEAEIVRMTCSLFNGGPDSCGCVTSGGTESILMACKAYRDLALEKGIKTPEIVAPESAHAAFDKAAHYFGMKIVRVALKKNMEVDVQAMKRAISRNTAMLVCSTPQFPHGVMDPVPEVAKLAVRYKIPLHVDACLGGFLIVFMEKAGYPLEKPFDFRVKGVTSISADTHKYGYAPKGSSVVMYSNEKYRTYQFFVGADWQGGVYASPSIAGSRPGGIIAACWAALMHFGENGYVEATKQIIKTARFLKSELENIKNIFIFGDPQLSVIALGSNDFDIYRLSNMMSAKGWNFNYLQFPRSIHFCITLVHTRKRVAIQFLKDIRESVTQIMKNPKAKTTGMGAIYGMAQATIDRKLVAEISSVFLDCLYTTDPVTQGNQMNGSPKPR

[17] = Cmax in 129/SvEvBrd x C57BL/6 hybrid mouse at 10 mg/kg; format: ADME, organism-based; design: dose 10 mg/kg; conditions: in vivo
[18] = AUC in 129/SvEvBrd x C57BL/6 hybrid mouse at 10 mg/kg; format: ADME, organism-based; design: dose 10 mg/kg; conditions: plasma
[19] = Bioavailability in 129/SvEvBrd x C57BL/6 hybrid mouse at 10 mg/kg; format: ADME, organism-based; conditions: in vivo
[20] = Protein binding in 129/SvEvBrd x C57BL/6 hybrid mouse plasma at 10 mg/kg; format: ADME, organism-based; design: dose 10 mg/kg; conditions: read-out: PPB
Mus musculus [21] = assay: Induction of lymphopenia in 129/SvEvBrd x C57BL/6 hybrid mouse whole blood assessed as reduction in lymphocyte level at 100 mg/kg, po after 4 hrs by complete blood count analysis; format: functional, organism-based; design: dose 100 mg/kg
Mus musculus [22] = assay: Induction of lymphopenia in 129/SvEvBrd x C57BL/6 hybrid mouse whole blood assessed as reduction in lymphocyte level at 100 mg/kg, po after 18 hrs by complete blood count analysis; format: functional, organism-based; design: dose 100 mg/kg
[23] = Cmax in 129/SvEvBrd x C57BL/6 hybrid mouse at 100 mg/kg, po; format: ADME, organism-based; design: dose 100 mg/kg, route oral; conditions: in vivo
[24] = AUC in 129/SvEvBrd x C57BL/6 hybrid mouse at 100 mg/kg, po; format: ADME, organism-based; design: dose 100 mg/kg, route oral; conditions: plasma
[25] = target: T2, Sphingosine-1-phosphate lyase 1 (Mus musculus) (UniProt Q8R0X7); assay: Inhibition of sphingosine-1-phosphate lyase in mouse spleen assessed as production of [33P]phosphoethanolamine; format: tissue-based
T2 sequence (whole entry): T1 sequence (Q8R0X7 whole entry)

HepG2 = assay: Increase in sphingosine-1-phosphate level in human HepG2 cells relative to control; format: functional
Mus musculus [26] = assay: Induction of lymphopenia in ip dosed 129/SvEvBrd x C57BL/6 hybrid mouse whole blood assessed as reduction in lymphocyte level by complete blood count analysis after 4 hrs; format: functional, organism-based

SMILES	Activity (Mus musculus [1]) [%]	AUC(0-inf) [2] [µM·h]	Papp at 20 µM [3] [×10⁻⁶ cm/s]	clearance [4] [mL/min/kg]	half-life [5] [h]	bioavailability [6] [%]	also measured
OC[C@@H](O)[C@@H](O)[C@H](O)c1c[nH]c(-c2ncc[nH]2)n1	-53	5.9	25.9	31.5	3.2	28	
CC(=O)c1nc([C@@H](O)[C@H](O)[C@H](O)CO)c(-c2ccccc2)[nH]1	40	11.5	3.11	23.9	1.9	49.6	
CC(=O)c1nc([C@@H](O)[C@H](O)[C@H](O)CO)c[nH]1	-41	35.8	11	2.9	4.5	14	Activity (Mus musculus [7]): Active; fold change (FC) (Mus musculus [8]): 22; Cmax [9]: 24.9 µM; Tmax [10]: 0.5 h; Vd [11]: 0.067 L/kg; Activity (Mus musculus [12]): -25%
CC(=O)c1ncc([C@@H](O)[C@H](O)[C@H](O)CO)s1	25		13.9		0.9		AUC (Mus musculus [13]): 2.7 µM·h; F (Mus musculus [14]): 65%
OC[C@@H](O)[C@@H](O)[C@H](O)c1c[nH]c(-c2cocn2)n1	1	3.4	0.9	16.6	1.2		
CCCCCCCCc1ccc(CCC(N)(CO)CO)cc1 [FINGOLIMOD]							Activity (Mus musculus [15]): 90%
Cn1cnc(-c2nc([C@@H](O)[C@H](O)[C@H](O)CO)c[nH]2)c1	-5	2.6	26.2	9.1	1.6	3	
OC[C@@H](O)[C@@H](O)[C@H](O)c1c[nH]c(-c2cscn2)n1	-33	5.8		12.7	4.2	12	
OC[C@@H](O)[C@@H](O)[C@H](O)c1c[nH]c(-c2ncccn2)n1	-26	3	10.9	15.2	2.4	7	
CN(C)C(=O)c1nc([C@@H](O)[C@H](O)[C@H](O)CO)c[nH]1			9.9		4		AUC (Mus musculus [13]): 6.7 µM·h; F (Mus musculus [14]): 5%; Activity (Mus musculus [12]): -11%
Nc1nc(N2CCCCC2)nc2c1c(=O)c(C(=O)NCc1ccc(-n3ccnc3)cc1)cn2CC1CCCO1 (centres undefined)							IC50 [16]: 2.1 µM; Cmax [17]: 451 µM; AUC [18]: 1870 µM·h; bioavailability [19]: 100%; fraction unbound [20]: < 0.01; Activity (Mus musculus [21]): Non-toxic; Activity (Mus musculus [22]): Non-toxic
CC(=O)c1nc([C@@H](O)[C@H](O)[C@H](O)C(=O)N(C)C)c[nH]1	-15	0.2	10.3	11.7	3.5	1	
OC[C@@H](O)[C@@H](O)[C@H](O)c1c[nH]c(-c2ncon2)n1	-16	3.2	14.1	11.3	0.7	5	
CC(=O)N/N=C(\C)c1nc([C@@H](O)[C@H](O)[C@H](O)CO)c[nH]1		3.6	9	8.9	2.6	5	Activity (Mus musculus [12]): -41%
Cc1scnc1-c1nc([C@@H](O)[C@H](O)[C@H](O)CO)c[nH]1	-7		4.9				
CCCCCCCCCCCC/C=C/C[C@@H](O)[C@H](CO)NCc1c(CO)cnc(C)c1O							Cmax [23]: < 1 µM; AUC [24]: < 1 µM·h; Activity [25]: inactive; Activity (HepG2): 275%; Activity (Mus musculus [26]): Non-toxic
